Test results from ChEMBL document CHEMBL6074691, “Discovery of 22(S)-23-phenyl-24-norchol-5-en-3β,22-diol (PFM046) as the first-in-class, steroidal, non-sulfated Liver X Receptor antagonist with anticancer activity” (Eur J Med Chem, 2025).
Activity calls are given as the source filed them. No cut-off for these calls is given here.

Assays:
[1] = Hepatic intrinsic clearance in mouse liver microsomes assessed per mg protein at 0.5 uM in presence of NADPH regenerating system by UHPLC-MS/MS method; type: ADME, Microsome; details: read-out: CLH
[2] = Unbound fraction in human plasma by dialysis method; type: ADME, cell-free
[3] = AUClast in C57BL/6 mouse at 400 ug, ip by UHPLC-MS/MS analysis; type: ADME, organism-based; details: in vivo, dose 400 µg
[4] = Drug uptake in C57BL/6 mouse at 400 ug, ip measured after 3 hrs by UHPLC-MS/MS analysis; type: ADME, organism-based; details: in vivo, dose 400 µg, read-out: Drug uptake
[5] = Tlast in C57BL/6 mouse at 400 ug, ip by UHPLC-MS/MS analysis; type: ADME, organism-based; details: in vivo, dose 400 µg
[6] = Kinetic solubility of compound in PBS at pH 7.4 by Rapidfire-MS/MS method; type: physicochemical; details: buffer
[7] = Drug uptake in C57BL/6 mouse at 400 ug, ip measured after 6 hrs by UHPLC-MS/MS analysis; type: ADME, organism-based; details: in vivo, dose 400 µg, read-out: Drug uptake
[8] = Hepatic intrinsic clearance in human liver microsomes assessed per mg protein at 0.5 uM in presence of NADPH regenerating system by UHPLC-MS/MS method; type: ADME, Microsome; details: read-out: CLH
[9] = Clast in C57BL/6 mouse at 400 ug, ip by UHPLC-MS/MS analysis; type: ADME, organism-based; details: in vivo, dose 400 µg
[10] = Drug uptake in C57BL/6 mouse at 400 ug, ip measured after 1 hr by UHPLC-MS/MS analysis; type: ADME, organism-based; details: in vivo, dose 400 µg, read-out: Drug uptake
[11] = Unbound fraction in mouse plasma by dialysis method; type: ADME, cell-free
Mus musculus = experiment: Observed extrapolated AUC in C57BL/6 mouse at 400 ug, ip by UHPLC-MS/MS analysis; type: ADME, organism-based; details: in vivo, at 400 µg
[12] = Tmax in C57BL/6 mouse at 400 ug, ip by UHPLC-MS/MS analysis; type: ADME, organism-based; details: in vivo, dose 400 µg
[13] = tested on: Lewis lung carcinoma cell line; experiment: Antitumor activity against mouse Lewis lung carcinoma cell line implanted in C57BL/6 mouse assessed as reduction in tumor volume at 300 to 400 ug, ip administered 5 days per week and measured every 2 to 3 days by caliper method; type: functional, organism-based; details: dose 300-400 µg
[14] = Observed AUC infinity in C57BL/6 mouse at 400 ug, ip by UHPLC-MS/MS analysis; type: ADME, organism-based; details: in vivo, dose 400 µg
[15] = Cmax in C57BL/6 mouse at 400 ug, ip by UHPLC-MS/MS analysis; type: ADME, organism-based; details: in vivo, dose 400 µg
B16-F1 = experiment: Antitumor activity against mouse B16-F1 cells implanted in C57BL/6 mouse assessed as reduction in tumor volume at 300 to 400 ug, ip administered 5 days per week and measured every 2 to 3 days by caliper method; type: functional, organism-based; details: dose 300-400 µg
[16] = Drug uptake in C57BL/6 mouse at 400 ug, ip measured after 24 hrs by UHPLC-MS/MS analysis; type: ADME, organism-based; details: in vivo, dose 400 µg, read-out: Drug uptake
U-937 [17] = experiment: Upregulation of ABCA1 expression in human U-937 cells incubated for 72 hrs by qRT-PCR analysis; type: functional, cell-based
[18] = tested on: Lewis lung carcinoma cell line; experiment: Antitumor activity against mouse Lewis lung carcinoma cell line assessed as reduction in cell number at 10 uM incubated for 72 hrs by trypan blue assay; type: functional, cell-based
U-937 [19] = experiment: Downregulation of SCD1 expression in human U-937 cells incubated for 72 hrs by qRT-PCR analysis; type: functional, cell-based
U-937 [20] = experiment: Downregulation of SREBP-1 expression in human U-937 cells incubated for 72 hrs by qRT-PCR analysis; type: functional, cell-based
U-937 [21] = experiment: Downregulation of FASN expression in human U-937 cells incubated for 72 hrs by qRT-PCR analysis; type: functional, cell-based
[22] = molecular target: T1, Oxysterols receptor LXR-alpha (Homo sapiens, UniProt Q13133); experiment: Antagonist activity at LXRalpha (unknown origin) by TR-FRET assay
T1 sequence (Q13133 whole entry): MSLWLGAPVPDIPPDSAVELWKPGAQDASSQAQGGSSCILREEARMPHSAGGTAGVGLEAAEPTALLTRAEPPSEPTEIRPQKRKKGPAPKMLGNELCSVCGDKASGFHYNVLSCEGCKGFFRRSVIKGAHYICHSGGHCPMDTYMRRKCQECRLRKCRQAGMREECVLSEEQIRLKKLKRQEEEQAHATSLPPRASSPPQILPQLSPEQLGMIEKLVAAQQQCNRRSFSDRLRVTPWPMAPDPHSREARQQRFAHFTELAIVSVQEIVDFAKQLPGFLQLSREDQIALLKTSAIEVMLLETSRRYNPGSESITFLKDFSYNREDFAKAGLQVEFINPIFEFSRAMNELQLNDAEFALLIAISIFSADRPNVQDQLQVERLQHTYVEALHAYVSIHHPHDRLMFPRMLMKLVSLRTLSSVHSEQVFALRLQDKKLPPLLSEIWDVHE

[23] = molecular target: T1, Oxysterols receptor LXR-alpha; experiment: Antagonist activity at LXRalpha (unknown origin)

Structure (SMILES)	microsomal CLint at 0.5 µM [1] [µL/min/mg]	Fu [2] [%]	AUC(0-t) [3] [ng·h/mL]	concentration at 3 h [4] [ng/mL]	Tlast [5] [h]	Kinetic_solubility [6]	concentration at 6 h [7] [ng/mL]	microsomal CLint at 0.5 µM [8] [µL/min/mg]	Clast [9] [ng/mL]	concentration at 1 h [10] [ng/mL]	Fu [11] [%]	Tmax [12] [h]	Activity [13]	Cmax [15] [ng/mL]	Activity (B16-F1)	IC50 [22] [nM]	IC50 [23] [µM]	other results
CC(C)CC[C@H](O)[C@@H](C)[C@H]1CC[C@H]2[C@@H]3CC=C4C[C@@H](OS(=O)(=O)[O-])CC[C@]4(C)[C@H]3CC[C@]12C.[Na+]	17.2	< 1	4690	363	6	NotTraceable	65.2	26.4	65.2	3170	< 1	1	Active	3170	Active	–	–	%AUCextra (Mus musculus): 2.5%; AUC(0-inf) [14]: 4800 ng·h/mL
C[C@@H]([C@H]1CC[C@H]2[C@@H]3CC=C4C[C@@H](O)CC[C@]4(C)[C@H]3CC[C@]12C)[C@@H](O)Cc1ccccc1	45.8	< 1	3070	109	24	NotTraceable	110	< 9.9	167	68.9	< 1	6	Active	174	Active	–	–	concentration at 24 h [16]: 167 ng/mL; Activity (U-937 [17]): Active; Activity [18]: Active; Activity (U-937 [19]): Active; Activity (U-937 [20]): Active; Activity (U-937 [21]): Active
CC(C)[C@@H](O)CC[C@@H](C)[C@H]1CC[C@H]2[C@@H]3CC=C4C[C@@H](OS(=O)(=O)O)CC[C@]4(C)[C@H]3CC[C@]12C	–	–	–	–	–	–	–	–	–	–	–	–	–	–	–	150	–	–
CC(C)CCC[C@@H](C)[C@H]1CC[C@H]2[C@@H]3C[C@@H]4O[C@@]45C[C@@H](OS(=O)(=O)O)CC[C@]5(C)[C@H]3CC[C@]12C	–	–	–	–	–	–	–	–	–	–	–	–	–	–	–	–	2	–
CC(C)CCC[C@@H](C)[C@H]1CC[C@H]2[C@@H]3C(=O)C=C4C[C@@H](OS(=O)(=O)O)CC[C@]4(C)[C@H]3CC[C@]12C	–	–	–	–	–	–	–	–	–	–	–	–	–	–	–	–	5	–
CC(C)[C@H](CC[C@@H](C)[C@H]1CC[C@H]2[C@@H]3CC=C4C[C@@H](O)CC[C@]4(C)[C@H]3CC[C@]12C)OS(=O)(=O)O	–	–	–	–	–	–	–	–	–	–	–	–	–	–	–	310	–	–
